Legend:
Assay type in all cases: cell-based
HT-29 = assay: Cell proliferation (cell count by microscopy) and HSA synergy, HT-29; conditions: Homo sapiens; HT-29 (BRAF, PIK3CA mutant); 72 h; 50% of cell counts relative to DMSO; tested A 13 nM-10 μM, B 1.4 nM-1 μM
Experimental: (§1) COMPOUNDS A and B were dissolved in 100% DMSO (Sigma, Catalog number D2650) at concentrations of 20 mM and stored at −20° C. until use. Compounds were arrayed in drug master plates (Greiner, Catalog number 788876) and serially diluted 3-fold (7 steps) at 2000× concentration.
(§2) Colorectal cancer cell lines used for this study were obtained, cultured and processed from commercial vendors ATCC, HSRRB, and CellBank Australia (Table 1). All cell line media were supplemented with 10% FBS (HyClone, Catalog number SH30071.03). Media for LIM2405 and LIM2551 was additionally supplemented with 0.6 μg/mL Insulin (SIGMA, Catalog number 19278), 1 μg/mL Hydrocortisone (SIGMA, Catalog number H0135), and 10 μM 1-Thioglycerol (SIGMA, Catalog number M6145).
(§3) Cell lines were cultured in 37° C. and 5% CO2 incubator and expanded in T-75 flasks. In all cases cells were thawed from frozen stocks, expanded through ≥1 passage using 1:3 dilutions, counted and assessed for viability using a ViCell counter (Beckman-Coulter) prior to plating. To split and expand cell lines, cells were dislodged from flasks using 0.25% Trypsin-EDTA (GIBCO, Catalog number 25200). All cell lines were determined to be free of mycoplasma contamination as determined by a PCR detection methodology performed at Idexx Radil (Columbia, Mo., USA) and correctly identified by detection of a panel of SNPs. […]

COLO-205 = assay: Cell proliferation (cell count by microscopy) and HSA synergy, COLO-205; conditions: Homo sapiens; COLO-205 (BRAF mutant); 72 h; 50% of cell counts relative to DMSO; tested A 13 nM-10 μM, B 1.4 nM-1 μM
Experimental: as §1, §2, §3

LIM2551 = assay: Cell proliferation (cell count by microscopy) and HSA synergy, LIM2551; conditions: LIM2551 (BRAF, PIK3CA mutant); 72 h; 50% of cell counts relative to DMSO; tested A 13 nM-10 μM, B 1.4 nM-1 μM
Experimental: as §1, §2, §3

OUMS-23 = assay: Cell proliferation (cell count by microscopy) and HSA synergy, OUMS-23; conditions: OUMS-23 (BRAF mutant); 72 h; 50% of cell counts relative to DMSO; tested A 13 nM-10 μM, B 1.4 nM-1 μM
Experimental: as §1, §2, §3

LS411N = assay: Cell proliferation (cell count by microscopy) and HSA synergy, LS411N; conditions: Homo sapiens, LS-411N; LS411N (BRAF mutant); 72 h; 50% of cell counts relative to DMSO; tested A 13 nM-10 μM, B 1.4 nM-1 μM
Experimental: as §1, §2, §3

RKO = assay: Cell proliferation (cell count by microscopy) and HSA synergy, RKO; conditions: Homo sapiens, cell line printed RXO (BRAF, PIK3CA mutant), 72 h, 50% of cell counts relative to DMSO, tested A 13 nM-10 μM, B 1.4 nM-1 μM
Experimental: as §1, §2, §3

LIM2405 = assay: Cell proliferation (cell count by microscopy) and HSA synergy, LIM2405; conditions: LIM2405 (BRAF mutant); 72 h; 50% of cell counts relative to DMSO; tested A 13 nM-10 μM, B 1.4 nM-1 μM
Experimental: as §1, §2, §3

`CC(C)(C)c1nc(-c2cccc(NS(=O)(=O)c3c(F)cccc3F)c2F)c(-c2ccnc(N)n2)s1` [COMPOUND B, N-{3-[5-(2-Amino-4-pyrimidinyl)-2-(1,1-dimethylethyl)-1,3-thiazol-4-yl]-2-fluorophenyl}-2,6-difluorobenzenesulfonamide] gave an IC50 (HT-29) of 0.012 µM, an IC50 (COLO-205) of 0.01 µM and an IC50 (LIM2551) of 0.023 µM. The IC50 (OUMS-23) was greater than 1 µM, the IC50 (LS411N) was greater than 1 µM and the IC50 (RKO) was 0.191 µM. For the same molecule, the IC50 (LIM2405) was 0.007 µM.

With `Cc1nc(NC(=O)N2CCC[C@H]2C(N)=O)sc1-c1ccnc(C(C)(C)C(F)(F)F)c1` [COMPOUND A, (S)-Pyrrolidine-1,2-dicarboxylic acid 2-amide 1-({4-methyl-5-[2-(2,2,2-trifluoro-1,1-dimethyl-ethyl)-pyridin-4-yl]-thiazol-2-yl}-amide)] the IC50 (HT-29) was 1.9 µM, the IC50 (COLO-205) was greater than 10 µM and the IC50 (LIM2551) was 1.4 µM. For the same molecule, the IC50 (OUMS-23) was greater than 10 µM, the IC50 (LS411N) was greater than 10 µM and the IC50 (RKO) was 2.6 µM. It also gave an IC50 (LIM2405) greater than 10 µM.
